Assays:
Streptococcus faecalis [1] = assay: MIC, growth inhibition in vitro (second entry, no. 27); type: cell-based; conditions: Streptococcus faecalis (Table 3 no. 27)
From the text: (§1) The biological properties of mersacidin as the MIC values required for inhibition of the growth of various microorganisms are listed in Table 3.

S. aureus 710 = assay: MIC, growth inhibition in vitro; type: cell-based
From the text: as §1

Str. D 21777 = assay: MIC, growth inhibition in vitro; type: cell-based
From the text: as §1

Micrococcus luteus = assay: MIC, growth inhibition in vitro; type: cell-based
From the text: as §1

[2] = system: Staphylococcus aureus SG 511; assay: MIC, growth inhibition in vitro; type: cell-based
From the text: as §1

Group G Streptococci = assay: MIC, growth inhibition in vitro; type: cell-based
From the text: as §1

S. aureus 789 = assay: MIC, growth inhibition in vitro; type: cell-based
From the text: as §1

Streptococcus faecalis [3] = assay: MIC, growth inhibition in vitro; type: cell-based; conditions: Streptococcus faecalis (Table 3 no. 17)
From the text: as §1

S. epidermidis MSSE = assay: MIC, growth inhibition in vitro; type: cell-based
From the text: as §1

S. aureus E 88 = assay: MIC, growth inhibition in vitro; type: cell-based
From the text: as §1

Bacillus subtilis = assay: MIC, growth inhibition in vitro; type: cell-based
From the text: as §1

[4] = system: Peptostreptococci species; assay: MIC, growth inhibition in vitro; type: cell-based
From the text: as §1

Group C Streptococci = assay: MIC, growth inhibition in vitro; type: cell-based
From the text: as §1

S. aureus 20666 = assay: MIC, growth inhibition in vitro; type: cell-based
From the text: as §1

[5] = system: Staphylococcus aureus 209P; assay: MIC, growth inhibition in vitro; type: cell-based
From the text: as §1

S. aureus 722 = assay: MIC, growth inhibition in vitro; type: cell-based
From the text: as §1

S. aureus E 712 = assay: MIC, growth inhibition in vitro; type: cell-based
From the text: as §1

S. aureus 20240 = assay: MIC, growth inhibition in vitro; type: cell-based
From the text: as §1

Streptococcus bovis = assay: MIC, growth inhibition in vitro; type: cell-based
From the text: as §1

S. aureus R 85 = assay: MIC, growth inhibition in vitro; type: cell-based
From the text: as §1

Streptococcus viridans = assay: MIC, growth inhibition in vitro; type: cell-based
From the text: as §1

S. aureus 503 = assay: MIC, growth inhibition in vitro; type: cell-based
From the text: as §1

S. aureus 285 = assay: MIC, growth inhibition in vitro; type: cell-based
From the text: as §1

S. aureus 3066 = assay: MIC, growth inhibition in vitro; type: cell-based
From the text: as §1

Group B Streptococci = assay: MIC, growth inhibition in vitro; type: cell-based
From the text: as §1

S. epidermidis MRSE = assay: MIC, growth inhibition in vitro; type: cell-based
From the text: as §1

Propionibacterium genes = assay: MIC, growth inhibition in vitro; type: cell-based
From the text: as §1

S. aureus 20424 = assay: MIC, growth inhibition in vitro; type: cell-based
From the text: as §1

Cornybacterium JK = assay: MIC, growth inhibition in vitro; type: cell-based
From the text: as §1

Group A Streptococci = assay: MIC, growth inhibition in vitro; type: cell-based
From the text: as §1

Streptococcus pneumoniae = assay: MIC, growth inhibition in vitro; type: cell-based
From the text: as §1

Listeria monocyctogenes = assay: MIC, growth inhibition in vitro; type: cell-based
From the text: as §1

S. aureus SG 511 [6] = assay: In vivo activity against S. aureus SG 511 abscess in rats; conditions: infecting dose 2 × 10^-9 CFU in 5% mucin under the skin, 50 mg/kg × 7 days
Description: In vivo activity of mersacidin against S. aureus SG 511 abscess in rats, compared with vancomycin.
Infecting dose : […] in 5% mucin, injected under the skin.
Treatment: 50 mg/kg × 7 days

S. aureus E 710 (MRSA) = assay: In vivo activity against S. aureus E 710 (MRSA) in mice; conditions: S. aureus E 710 (MRSA), 5 × 10^9 CFU/mouse (1 MLD)
Description: On subcutaneous administration in a dose of 9.37 and 25.00 mg/kg to laboratory mice infected experimentally with Staphylococcus aureus SG 511 and S. aureus 710 (resistant to methicillin), […]. […]

S. aureus SG 511 [7] = assay: In vivo activity against S. aureus SG 511 infection in mice; conditions: S. aureus SG 511, 1.75 × 10^9 CFU/mouse
Description: On subcutaneous administration in a dose of 9.37 and 25.00 mg/kg to laboratory mice infected experimentally with Staphylococcus aureus SG 511 and S. aureus 710 (resistant to methicillin), […].
In vivo activity of mersacidin against S. aureus SG 511
infection in mice compared with vancomycin.
Inoculation medium used: 1.75 × 10^9 CFU/mouse

S. aureus SG 511 [8] = assay: as above
[9] = Animal mortality after subcutaneous dose; type: in vivo; conditions: laboratory mice; 500 mg/kg subcutaneous, highest concentration tested
[10] = mice, S. aureus SG 511, 1.75 × 10^9 CFU/mouse, 0.80 mg/kg × 3, s.c.
[11] = mice, S. aureus SG 511, 1.75 × 10^9 CFU/mouse, 1.60 mg/kg × 3, s.c.
[12] = mice, S. aureus SG 511, 1.75 × 10^9 CFU/mouse, 3.12 mg/kg × 3, s.c.
[13] = mice, S. aureus SG 511, 1.75 × 10^9 CFU/mouse, 6.25 mg/kg × 3, s.c.

For mersacidin, the MIC values (Streptococcus faecalis [1]) was 64,0 μg/ml, the MIC values (S. aureus 710) was 0,39-0,78 μg/ml and the MIC values (Str. D 21777) was 1,56-3,12 μg/ml. The MIC values (Micrococcus luteus) was 0,0975-0,195 μg/ml, the MIC values [2] was 0,39-0,78 μg/ml and the MIC values (Group G Streptococci) was 2,0-8,0 μg/ml. For the same substance, the MIC values (S. aureus 789) was 0.78 to 1.56 µg/mL, the MIC values (Streptococcus faecalis [3]) was 0,0975-0,195 μg/ml and the MIC values (S. epidermidis MSSE) was 0,5-16,0 μg/ml. For the same substance, the MIC values (S. aureus E 88) was 6.25 to 12.50 µg/mL, the MIC values (Bacillus subtilis) was 0,39-0,78 μg/ml and the MIC values [4] was 0,5-8,0 μg/ml. For the same substance, the MIC values (Group C Streptococci) was 2,0-64 μg/ml, the MIC values (S. aureus 20666) was 3,12-6,25 μg/ml and the MIC values [5] was 0.78 to 1.56 µg/mL. The MIC values (S. aureus 722) was 3.12 to 6.25 µg/mL, the MIC values (S. aureus E 712) was 3,12-6,25 μg/ml and the MIC values (S. aureus 20240) was 3.12 to 6.25 µg/mL. For the same substance, the MIC values (Streptococcus bovis) was 4,0-32,0 μg/ml, the MIC values (S. aureus R 85) was 0,39-0,78 μg/ml and the MIC values (Streptococcus viridans) was 0,5-32,0 μg/ml. For the same substance, the MIC values (S. aureus 503) was 0.78 to 1.56 µg/mL, the MIC values (S. aureus 285) was 0,78-1,56 μg/ml and the MIC values (S. aureus 3066) was 12.50 to 25.00 µg/mL. For the same substance, the MIC values (Group B Streptococci) was 1,0-8,0 μg/ml, the MIC values (S. epidermidis MRSE) was 0,5-16,0 μg/ml and the MIC values (Propionibacterium genes) was 1,0-16,0 μg/ml. For the same substance, the MIC values (S. aureus 20424) was 1.56 to 3.12 µg/mL, the MIC values (Cornybacterium JK) was 2,0-4,0 μg/ml and the MIC values (Group A Streptococci) was 0,5-8,0 μg/ml. The MIC values (Streptococcus pneumoniae) was 1,0-4,0 μg/ml, the MIC values (Listeria monocyctogenes) was 16,0-64,0 μg/ml and the “reduces bacterial counts by” value (S. aureus SG 511 [6]) was 1.4 log10 CFU/ml. The “Number of mice treated/cured” value (S. aureus E 710 (MRSA); 6.25 mg/kg × 3, s.c.) was 1/10, the “percentage rate of cure” value (S. aureus E 710 (MRSA); 6.25 mg/kg × 3, s.c.) was 10% and the “Number of mice treated/cured” value (S. aureus E 710 (MRSA); 9.37 mg/kg × 3, s.c.) was 4/10. For the same substance, the “percentage rate of cure” value (S. aureus E 710 (MRSA); 9.37 mg/kg × 3, s.c.) was 40%, the “Number of mice treated/cured” value (S. aureus E 710 (MRSA); 12.50 mg/kg × 3, s.c.) was 10/16 and the “percentage rate of cure” value (S. aureus E 710 (MRSA); 12.50 mg/kg × 3, s.c.) was 63%. For the same substance, the “Number of mice treated/cured” value (S. aureus E 710 (MRSA); 25.00 mg/kg × 3, s.c.) was 12/12, the “percentage rate of cure” value (S. aureus E 710 (MRSA); 25.00 mg/kg × 3, s.c.) was 100% and the “Approx. ED50” value (S. aureus E 710 (MRSA); s.c.) was ~10.81 mg/kg × 3. The “Approx. ED90” value (S. aureus E 710 (MRSA); s.c.) was ~19.59 mg/kg × 3, the “Number of mice treated/cured” value (S. aureus SG 511 [7]; 9.37 mg/kg × 3, s.c.) was 53/53 and the “percentage rate of cure” value (S. aureus SG 511 [7]; 9.37 mg/kg × 3, s.c.) was 100%. For the same substance, the “Approx. ED50” value (S. aureus SG 511 [7]; s.c.) was ~2.59 mg/kg × 3, the “activity in the in vivo system of laboratory mice” value (S. aureus SG 511 [8]; mice infected with S. aureus SG 511 and S. aureus 710 (resistant to methicillin), 9.37 and 25.00 mg/kg s.c.) was “good activity” and the “Number of mice treated/cured” value (S. aureus SG 511 [8]; [10]) was 0/27. The “percentage rate of cure” value (S. aureus SG 511 [8]; [10]) was 0%, the “Number of mice treated/cured” value (S. aureus SG 511 [8]; [11]) was 3/24 and the “percentage rate of cure” value (S. aureus SG 511 [8]; [11]) was 12%. For the same substance, the “Number of mice treated/cured” value (S. aureus SG 511 [8]; [12]) was 18/27, the “percentage rate of cure” value (S. aureus SG 511 [8]; [12]) was 67% and the “Number of mice treated/cured” value (S. aureus SG 511 [8]; [13]) was 38/40. The “percentage rate of cure” value (S. aureus SG 511 [8]; [13]) was 95%, the “Approx. ED90” value (S. aureus SG 511 [8]; mice, S. aureus SG 511, 1.75 × 10^9 CFU/mouse, s.c.) was ~5.38 mg/kg × 3 and the animal mortality [9] was “no animal mortality was observed”.
